Data taken from the supplement of paper PMC10307832.

How the values were obtained:
Test in all cases: relative viability (nuclei count vs DMSO), 5 days (fraction); higher = more cells survive
NCI-H2347 = conditions: first compound 20 µM
Outline: (§1)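 Lung cancer cell lines in 1536-well plates were dosed by pin tool the day after seeding, either with one drug alone or with a fixed anchor-drug dose plus five library-drug doses (not always all listed) in √10 steps. After 5 days, cells were fixed and their nuclei stained in one step (final 0.05% Triton X-100, 1% formaldehyde, 1 ug/ml Hoechst), then counted on 4× images. Relative viability is the nuclei count in treated wells divided by that in vehicle wells. Values are medians of duplicate plates.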

NCI-H3122 = test system: NCI-H3122
Outline: as §1

NCI-H322M = test system: NCI-H322M
Outline: as §1

NCI-H358 = test system: NCI-H358
Outline: as §1

NCI-H460 = test system: NCI-H460
Outline: as §1

NCI-H520 = test system: NCI-H520
Outline: as §1

NCI-H596 = test system: NCI-H596
Outline: as §1

NCI-H650 = test system: NCI-H650
Outline: as §1

NCI-H727 = test system: NCI-H727
Outline: as §1

NCI-H838 = test system: NCI-H838
Outline: as §1

SW 1573 = test system: SW 1573
Outline: as §1

SW 900 = test system: SW 900
Outline: as §1

Compound: COCC1(CO)C(=O)C2CCN1CC2 (configuration not stated) [PRIMA-1MET] + N=C(N)NC(=N)NCCc1ccccc1 [Phenformin] (partner 250 µM)
- relative viability (NCI-H2347): 0.387
- relative viability (NCI-H3122; first compound 0.2 µM): 0.367
- relative viability (NCI-H3122; first compound 0.6325 µM): 0.35
- relative viability (NCI-H3122; first compound 6.325 µM): 0.392
- relative viability (NCI-H3122; first compound 20 µM): 0.343
- relative viability (NCI-H322M; first compound 0.2 µM): 0.869
- relative viability (NCI-H322M; first compound 0.6325 µM): 0.549
- relative viability (NCI-H322M; first compound 6.325 µM): 0.804
- relative viability (NCI-H322M; first compound 20 µM): 0.0578
- relative viability (NCI-H358; first compound 0.2 µM): 0.341
- relative viability (NCI-H358; first compound 2 µM): 0.253
- relative viability (NCI-H358; first compound 6.325 µM): 0.279
- relative viability (NCI-H358; first compound 20 µM): 0.0042
- relative viability (NCI-H460; first compound 0.2 µM): 0.658
- relative viability (NCI-H460; first compound 0.6325 µM): 0.495
- relative viability (NCI-H460; first compound 2 µM): 0.481
- relative viability (NCI-H460; first compound 6.325 µM): 0.042
- relative viability (NCI-H460; first compound 20 µM): 0.0117
- relative viability (NCI-H520; first compound 0.2 µM): 0.605
- relative viability (NCI-H520; first compound 0.6325 µM): 0.501
- relative viability (NCI-H520; first compound 2 µM): 0.314
- relative viability (NCI-H520; first compound 6.325 µM): 0.289
- relative viability (NCI-H520; first compound 20 µM): 0.155
- relative viability (NCI-H596; first compound 0.2 µM): 0.752
- relative viability (NCI-H596; first compound 0.6325 µM): 0.794
- relative viability (NCI-H596; first compound 2 µM): 0.622
- relative viability (NCI-H596; first compound 6.325 µM): 0.891
- relative viability (NCI-H596; first compound 20 µM): 0.693
- relative viability (NCI-H650; first compound 0.2 µM): 0.595
- relative viability (NCI-H650; first compound 2 µM): 0.433
- relative viability (NCI-H650; first compound 6.325 µM): 0.482
- relative viability (NCI-H650; first compound 20 µM): 0.438
- relative viability (NCI-H727; first compound 0.2 µM): 0.472
- relative viability (NCI-H727; first compound 0.6325 µM): 0.395
- relative viability (NCI-H727; first compound 2 µM): 0.387
- relative viability (NCI-H727; first compound 6.325 µM): 0.342
- relative viability (NCI-H727; first compound 20 µM): 0.124
- relative viability (NCI-H838; first compound 0.2 µM): 0.574
- relative viability (NCI-H838; first compound 0.6325 µM): 0.535
- relative viability (NCI-H838; first compound 2 µM): 0.451
- relative viability (NCI-H838; first compound 6.325 µM): 0.712
- relative viability (NCI-H838; first compound 20 µM): 0.0931
- relative viability (SW 1573; first compound 0.2 µM): 0.408
- relative viability (SW 1573; first compound 0.6325 µM): 0.291
- relative viability (SW 1573; first compound 2 µM): 0.393
- relative viability (SW 1573; first compound 6.325 µM): 0.22
- relative viability (SW 1573; first compound 20 µM): 0.0256
- relative viability (SW 900; first compound 0.2 µM): 0.665
- relative viability (SW 900; first compound 0.6325 µM): 0.61
- relative viability (SW 900; first compound 2 µM): 0.492
- relative viability (SW 900; first compound 6.325 µM): 0.0861
- relative viability (SW 900; first compound 20 µM): 0.105
